Results reported in US5952008A, “Processes for preparing compositions for inhalation” (AB Astra, priority 1993, dated 1999).

Experiments:
[1] = Inhalation of insulin/enhancer powder in rats, blood glucose monitored as measure of insulin uptake; format: in vivo, rat; settings: for Enhancement of polypeptide (insulin) absorption in the lung, result in words: rat model; for Effect (enhancement of insulin uptake, blood glucose level): rats, inhaled powder
Procedure: Each of the compounds listed in Table I was tested for its ability to enhance uptake of a polypeptide (insulin) in a rat model.
Various forms of insulin were employed in the different trials: recombinant human, semisynthetic human or bovine. Each formulation was prepared as above, drying and processing the insulin/enhancer or insulin/enhancer/lactose solution to produce an inhalable powder. The powder was administered to rats by inhalation, and the blood glucose levels of the rats were subsequently monitored as a measure of insulin uptake. These levels were compared to the corresponding values obtained from rats which had inhaled insulin formulations without enhancer.

[2] = tested on: CaCo-2 epithelial cell monolayer; test: In vitro CaCo-2 epithelial cell monolayer transport assay; format: in vitro ADME; settings: for Transport rate across the monolayer with enhancer, in words: up to 16 mM sodium caprate
Procedure: A standard in vitro assay utilizing an epithelial cell line, CaCo-2 (available through the American Type Culture Collection (ATCC), Rockville, Md., USA), has been developed to assess the ability of various enhancer compounds to promote transport of markers across an epithelial cell monolayer, as a model for the epithelial cell layer which functions in the lung to separate the alveolus from the pulmonary blood supply.
In this assay, the enhancer and polypeptide or other marker are dissolved in aqueous solution at various proportions and/or concentrations, and applied to the apical side of the cell monolayer. After 60 min incubation at 37° C. and 95% RH (relative humidity), the amount of the marker on the basolateral side of the cells is determined, e.g., by use of a radioactively labelled marker.

[3] = Enhancer:Insulin:lactose 2:4:94
[4] = Enhancer:Insulin:lactose 4:4:92
[5] = Enhancer:Insulin:lactose 25:75:0

Row | Molecule | Enhancement of polypeptide (insulin) absorption in the lung, result in words [1] | Effect (enhancement of insulin uptake, blood glucose level) [1, 4] | also measured
1 | CCCCCCCCCC(=O)[O-].[K+] [Potassium caprate] | effective |  | Effect (enhancement of insulin uptake, blood glucose level) ([1]; Enhancer:Insulin:lactose 27:73:0): +
2 | carbonic anhydrase |  |  | Transport rate across the monolayer with enhancer, in words [2]: no increase in transport rate
3 | CC(=O)OC1CC2(C)C(CC(O)C3C4(C)CCC(O)C(C)C4CCC32C)C1=C(CCCC(C)C)C(=O)NCCS(=O)(=O)O (stereo not shown) [Sodium tarodihydrofusidate] | effectively enhance polypeptide absorption in the lung |  | Effect (enhancement of insulin uptake, blood glucose level) [1, 3]: +
4 | C[C@H](CCC(=O)NCC(=O)O)[C@H]1CC[C@H]2[C@@H]3[C@H](O)C[C@@H]4C[C@H](O)CC[C@]4(C)[C@H]3C[C@H](O)[C@]12C [Sodium glycocholate] | effectively enhance polypeptide absorption in the lung | + | 
5 | albumin |  |  | Transport rate across the monolayer with enhancer, in words [2]: no increase in transport rate
6 | CCCCCCCCCCCCCC(=O)[O-].[Na+] [Sodium myristate] | perform well |  | Effect (enhancement of insulin uptake, blood glucose level) ([1]; Enhancer:Insulin:lactose 30:70:0): +
7 | CCCCCCCCOC1O[C@H](CO)[C@@H](O)[C@H](O)[C@H]1O (stereo partly shown) [Octylglucopyranoside] | some absorption enhancing properties | (+) | 
8 | cytochrome C |  |  | Transport rate across the monolayer with enhancer, in words [2]: no increase in transport rate
9 | O=C(O)CN(CCN(CC(=O)O)CC(=O)O)CC(=O)O [EDTA, ethylenediaminetetraacetic acid] | ineffective |  | 
10 | Dimethyl-β-cyclodextrin | absorption enhancing effect |  | Effect (enhancement of insulin uptake, blood glucose level) ([1]; Enhancer:Insulin:lactose 75:25:0): +
11 | CCCCCCCC(=O)OCC(COP(=O)([O-])OCC[N+](C)(C)C)OC(=O)CCCCCCC (stereo not shown) [Dioctanoylphosphatidylcholine] |  |  | Effect (enhancement of insulin uptake, blood glucose level) [1, 3]: (+); Effect (enhancement of insulin uptake, blood glucose level) ([1]; Enhancer:Insulin:lactose 4:4:94): -
12 | NC(=O)CC[C@@H]1NC(=O)[C@H](Cc2ccccc2)NC(=O)[C@H](Cc2ccc(O)cc2)NC(=O)[C@@H](N)CSSC[C@@H](C(=O)N2CCC[C@H]2C(=O)N[C@@H](CCCN=C(N)N)C(=O)NCC(N)=O)NC(=O)[C@H](CC(N)=O)NC1=O [vasopressin] |  |  | Increase in amount absorbed across the monolayer compared to absence of enhancer ([2]; 16 mM sodium caprate): 10-15 times
13 | CCCCCCCC/C=C\CCCCCCCC(=O)[O-].[K+] [Potassium oleate] |  | + | 
14 | CCCCCCCCCCCC(=O)[O-].[Na+] [Sodium laurate] | perform well |  | Effect (enhancement of insulin uptake, blood glucose level) [1, 5]: +
15 | CCCCCCCC(=O)[O-].[Na+] [Sodium caprylate] |  |  | Effect (enhancement of insulin uptake, blood glucose level) [1, 5]: -
16 | CCCCCCCCCC(=O)[O-].[Na+] [Sodium caprate] | perform well |  | Amount of marker (mannitol) appearing on the basolateral side, insulin added ([2]; 1:3 sodium caprate:insulin by weight, FIG. 2): dependent upon the concentration of enhancer used; Amount of marker (mannitol) appearing on the basolateral side ([2]; sodium caprate up to 16 mM, 60 min, 37° C., FIG. 1): dependent upon the concentration of enhancer used; Effect (enhancement of insulin uptake, blood glucose level) ([1]; Enhancer:Insulin:lactose 10:90:0): (+); Effect (enhancement of insulin uptake, blood glucose level) ([1]; Enhancer:Insulin:lactose 17.5:82.5:0): (+); Effect (enhancement of insulin uptake, blood glucose level) [1, 5]: +
17 | Lysophosphatidylcholine | effective enhancer | + | 
18 | C[C@H](CCC(=O)NCCS(=O)(=O)O)[C@H]1CC[C@H]2[C@@H]3[C@H](O)C[C@@H]4C[C@H](O)CC[C@]4(C)[C@H]3C[C@H](O)[C@]12C [Sodium taurocholate] | effectively enhance polypeptide absorption in the lung | + | 
19 | C[C@H](CCC(=O)O)[C@H]1CC[C@H]2[C@@H]3[C@@H](O)C[C@@H]4C[C@H](O)CC[C@]4(C)[C@H]3CC[C@]12C [Sodium ursodeoxycholate] | effectively enhance polypeptide absorption in the lung | + | 
20 | Lysine caprate | effective |  | Effect (enhancement of insulin uptake, blood glucose level) ([1]; Enhancer:Insulin:lactose 35:65:0): +
